Reference: publication PMC2680092 (Journal of molecular biology, 2008)
Read-outs that look alike come from different tables or passages of the source.

Target: DEN MTase (Dengue virus type 2, UniProt P29990)
Assay: GTP-Bodipy displacement
Type: binding
Conditions: for Fold Affinity Reduction: Ki relative to GTP
[1] = 10 nM GTP-Bodipy, 500 nM DEN MTase

Chain of DEN MTase (P29990 2493-2755 limits assumed): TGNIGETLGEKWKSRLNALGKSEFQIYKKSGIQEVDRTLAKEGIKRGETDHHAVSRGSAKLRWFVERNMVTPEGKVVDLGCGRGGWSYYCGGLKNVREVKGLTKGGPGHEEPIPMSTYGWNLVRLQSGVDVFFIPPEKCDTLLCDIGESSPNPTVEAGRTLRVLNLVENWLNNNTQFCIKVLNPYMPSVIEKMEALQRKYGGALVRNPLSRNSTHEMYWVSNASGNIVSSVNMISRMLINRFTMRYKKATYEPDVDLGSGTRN

Structure (SMILES)	Ki [1] [µM]	Ki [µM]	Fold Affinity Reduction
CSc1nc(N)nc2c1ncn2C1OC(COP(=O)(O)OP(=O)(O)OP(=O)(O)O)C(O)C1O (centres unmarked) [6-methylthio GTP, 6-methylthio-GTP]	0.23		
Nc1ncnc2c1ncn2[C@@H]1O[C@H](COP(=O)(O)OP(=O)(O)OP(=O)(O)O)[C@@H](O)[C@H]1O [ATP, Adenosine triphosphate]		350	8750
Nc1nc2c(ncn2[C@@H]2O[C@H](COP(=O)(O)OP(=O)(O)O)[C@@H](O)[C@H]2O)c(=O)[nH]1 [GDP]	0.1		3
Nc1nc2c(ncn2[C@@H]2O[C@H](COP(=O)(O)O)[C@@H](O)[C@H]2O)c(=O)[nH]1 [GMP]	0.95		
Nc1nc2c(ncn2[C@@H]2O[C@H](COP(=O)(O)OP(=O)(O)OP(=O)(O)O)[C@@H](O)[C@H]2O)c(=O)[nH]1 [GTP, guanosine triphosphate]		0.04	0
Nc1nc2c(ncn2[C@@H]2O[C@H](CO)[C@@H](O)[C@H]2O)c(=O)[nH]1 [Guanosine, guanosine]		260	6400
O=c1[nH]cnc2c1ncn2[C@@H]1O[C@H](COP(=O)(O)OP(=O)(O)OP(=O)(O)O)[C@@H](O)[C@H]1O [ITP, Inosine triphosphate]	0.12		3
O=c1[nH]c(=O)c2ncn([C@@H]3O[C@H](COP(=O)(O)OP(=O)(O)OP(=O)(O)O)[C@@H](O)[C@H]3O)c2[nH]1 [XTP, xanthine triphosphate]	0.48		12
Cn1c[n+]([C@@H]2O[C@H](COP(=O)(O)OP(=O)(O)OP(=O)(O)OC[C@H]3O[C@@H](n4cnc5c(N)ncnc54)[C@H](O)[C@@H]3O)[C@@H](O)[C@H]2O)c2nc(N)[nH]c(=O)c21 [^7meGpppA]	0.17		
Cn1c[n+]([C@@H]2O[C@H](COP(=O)(O)OP(=O)(O)OP(=O)(O)OC[C@H]3O[C@@H](n4cnc5c(=O)[nH]c(N)nc54)[C@H](O)[C@@H]3O)[C@@H](O)[C@H]2O)c2nc(N)[nH]c(=O)c21 [^7meGpppG]	0.1		
Nc1nc2c(ncn2[C@H]2C[C@H](O)[C@@H](COP(=O)(O)OP(=O)(O)OP(=O)(O)O)O2)c(=O)[nH]1 [dGTP]	0.61		15
Nc1nc2c(ncn2[C@H]2CC[C@@H](COP(=O)(O)OP(=O)(O)OP(=O)(O)O)O2)c(=O)[nH]1 [ddGTP]	0.77		19
